Reference: PubChem BioAssay (NCI)
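In this assay, cells in 96-well plates receive the compound at five concentrations for 48 hours. Endpoints are linearly interpolated between the surrounding concentrations. GI50: concentration for 50% inhibition of growth. TGI denotes the concentration required for complete inhibition of growth.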

What was measured:
Assay in all cases: growth of human tumour cells (NCI), 48 h
SK-OV-3 ovarian = test system: SK-OV-3 ovarian
EKVX NSCLC = test system: EKVX NSCLC
NCI/ADR-RES ovarian = test system: NCI/ADR-RES ovarian
SNB-19 CNS = test system: SNB-19 CNS
OVCAR-8 ovarian = test system: OVCAR-8 ovarian
K-562 leukemia = test system: K-562 leukemia
MDA-MB-435 = test system: MDA-MB-435
M14 melanoma = test system: M14 melanoma
786-0 renal = test system: 786-0 renal
BT-549 breast = test system: BT-549 breast

Compound | GI50 (SK-OV-3 ovarian) [µM] | TGI (SK-OV-3 ovarian) [µM] | GI50 (EKVX NSCLC) [µM] | TGI (EKVX NSCLC) [µM] | GI50 (NCI/ADR-RES ovarian) [µM] | TGI (NCI/ADR-RES ovarian) [µM] | GI50 (SNB-19 CNS) [µM] | TGI (SNB-19 CNS) [µM] | GI50 (OVCAR-8 ovarian) [µM] | TGI (OVCAR-8 ovarian) [µM] | GI50 (K-562 leukemia) [µM] | TGI (K-562 leukemia) [µM] | GI50 (MDA-MB-435) [µM] | TGI (MDA-MB-435) [µM] | GI50 (M14 melanoma) [µM] | TGI (M14 melanoma) [µM] | GI50 (786-0 renal) [µM] | TGI (786-0 renal) [µM] | GI50 (BT-549 breast) [µM] | TGI (BT-549 breast) [µM]
Cn1cc(CO)c2ccccc21 | 77.5 | > 100 | 50.7 | > 100 | 27.1 | > 100 | > 100 | > 100 | > 100 | > 100 | 17.5 | > 100 | 3.45 | 21 | 31.6 | > 100 | > 100 | > 100 | 53.7 | > 100
COc1ccc(/C=C(/C(=O)n2cnnn2)c2cc(OC)c(OC)c(OC)c2)cc1 | 5.26 | > 100 | 5.48 | > 100 | 3.87 | > 100 | 4.25 | > 100 | 3.66 | > 100 | 2.86 | > 100 | 0.614 | 3.24 | 2.58 | > 100 | 4.76 | > 100 | 2.32 | 7.57
COc1cc2nnn3c4ncccc4c(N=O)c3c2cc1OC | 6.96 | 41.7 | 3.97 | > 66.6 | 0.91 | > 33.6 | 9.75 | > 74 | 1.77 | > 100 | 0.282 | > 100 | 3.55 | 32.7 | 4.58 | 13 | 0.391 | 2.48 | 9.43 | 64.6
COC(=O)[C@H](Cc1ccccc1)NC(=O)c1csc([C@@H](C[C@H](C(C)C)N(C)C(=O)[C@@H](NC(=O)[C@H]2CCCN2C)C2CC2)OC(C)=O)n1 | 1.04 | > 33.3 | 1.97 | > 33.3 | 8.59 | > 33.3 | 0.943 | > 33.3 | 0.602 | > 33.3 | 0.113 | > 33.3 | 0.027 | 0.191 | 0.281 | > 33.3 | 0.746 | > 33.3 | 0.248 | 7.85
O=C(CCN1CCCC1)Nc1ccc2c(Nc3ccccc3)c3ccccc3nc2c1 | 0.651 | 3.59 | 1.41 | 4.23 | 1.84 | 7.22 | 0.432 | 2.92 | 0.851 | 5.51 | 0.235 | 1.2 | 1.44 | 2.84 | 1.13 | 2.69 | 0.467 | 1.93 | 1.5 | 3.09
Fc1c[c-]c(-c2ccccn2)c(F)c1.[CH3-].[Pt+2].c1ccc(P(C[PH+](c2ccccc2)c2ccccc2)c2ccccc2)cc1 | 0.816 | 6.03 | 0.495 | 1.96 | 2.53 | 11.9 | 0.403 | 1.32 | 0.63 | 5.76 | 0.365 | 6.95 | 0.795 | 2.08 | 0.71 | 2.31 | 0.75 | 1.65 | 0.492 | 1.49
C[C@@H]1C/C=C\C(=O)O[C@H](/C=C/C#C/C=C/C(C)(C)[C@@H](O)c2cccc(O)c2Br)[C@@H](C)/C=C/[C@H](C)C[C@H](OC(N)=O)C1 | 13.3 | 27.3 | 0.0716 | 18.7 | 0.0567 | 16.4 | 1.66 | 19.1 | 0.0512 | 23.2 | 0.0332 | > 32.7 | 0.0332 | 12.1 | 0.0236 | 0.0639 | 0.0361 | 15.2 | 0.0308 | 18.2
CC12OC(C(=O)C13CCC3)C1C(=O)c3ccccc3C(=O)C12 (stereo not given) | > 100 | > 100 | > 100 | > 100 | > 100 | > 100 | > 100 | > 100 | 61.8 | > 100 | 58.1 | > 100 | > 100 | > 100 | > 100 | > 100 | > 100 | > 100 | > 100 | > 100
O=C(O)C1C2C=CC(O2)C1C(=O)Nc1ncccn1 (stereo not given) | – | > 100 | – | > 100 | – | > 100 | – | > 100 | – | > 100 | – | > 100 | – | > 100 | – | > 100 | – | > 100 | – | > 100
CC(C)(CO)N=Cc1ccccc1[O-].CC(C)(CO)N=Cc1ccccc1[O-].[Co+2] | > 100 | > 100 | > 84.4 | > 100 | > 100 | > 100 | > 100 | > 100 | > 100 | > 100 | 47.3 | > 100 | 38.4 | > 100 | 38.7 | > 100 | 42.1 | > 100 | 14.5 | > 63.4
